From patent US20240043404A1 (AbbVie Inc., priority 2009, published 2024)

test system: RS4;11 cells; assay: RS4;11 cell viability assay (CellTiter Glo); format: cell-based, human; conditions: Homo sapiens, RS4-11, 48 h, 50,000 cells per well, 10% human serum, 48 hours; read-out: RS4; 11 EC50 Values;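 note: acute lymphoblastic leukemia line RS4,11, EC50 derived from percentage of viable cells after treatment relative to untreated controls, cell killing taken as a measure of Bcl-2 inhibition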
Procedure: The acute lymphoblastic leukemia (ALL) cell line RS4;11 was used as the primary human cell line to assess the cellular activity of Bcl-2 selective agents in vitro and their efficacy in vivo.
Cell cytotoxicity EC50 values were assessed using CellTiter Glo (Promega) according to the manufacturer's recommendations. The EC50 values were determined as a percentage of viable cells following treatment compared to the untreated control cells.

Compound	EC50 [nM]
CN(C)CC(=O)N1CCO[C@@H](CNc2ccc(S(=O)(=O)NC(=O)c3ccc(N4CCN(CC5=C(c6ccc(Cl)cc6)CC(C)(C)CC5)CC4)cc3Oc3cnc4[nH]ccc4c3)cc2[N+](=O)[O-])C1 [Example 259, 4-(4-{[2-(4-chlorophenyl)-4,4-dimethylcyclohex-1-en-1-yl]methyl}piperazin-1-yl)-N-{[4-({[(2S)-4-(N,N-dimethylglycyl)morpholin-2-yl]methyl}amino)-3-nitrophenyl]sulfonyl}-2-(1H-pyrrolo[2,3-b]pyridin-5-yloxy)benzamide]	0.388
CC1(C)CCC(CN2CCN(c3ccc(C(=O)NS(=O)(=O)c4ccc(N[C@H]5CC[C@H](NC6CCOCC6)CC5)c([N+](=O)[O-])c4)c(Oc4cnc5[nH]ccc5c4)c3)CC2)=C(c2ccc(Cl)cc2)C1 [Example 123, Trans-4-(4-{[2-(4-chlorophenyl)-4,4-dimethylcyclohex-1-en-1-yl]methyl}piperazin-1-yl)-N-[(3-nitro-4-{[4-(tetrahydro-2H-pyran-4-ylamino)cyclohexyl]amino}phenyl)sulfonyl]-2-(1H-pyrrolo[2,3-b]pyridin-5-yloxy)benzamide]	3.33
CN(C)CC(=O)N1CCO[C@H](CNc2ccc(S(=O)(=O)NC(=O)c3ccc(N4CCN(CC5=C(c6ccc(Cl)cc6)CC(C)(C)CC5)CC4)cc3Oc3cnc4[nH]ccc4c3)cc2[N+](=O)[O-])C1 [Example 258, 4-(4-{[2-(4-chlorophenyl)-4,4-dimethylcyclohex-1-en-1-yl]methyl}piperazin-1-yl)-N-{[4-({[(2R)-4-(N,N-dimethylglycyl)morpholin-2-yl]methyl}amino)-3-nitrophenyl]sulfonyl}-2-(1H-pyrrolo[2,3-b]pyridin-5-yloxy)benzamide]	0.553
CC1(C)CCC(CN2CCN(c3ccc(C(=O)NS(=O)(=O)c4ccc(NCC5CCOC5)c([N+](=O)[O-])c4)c(Oc4cnc5[nH]ccc5c4)c3)CC2)=C(c2ccc(Cl)cc2)C1 (stereo not shown) [Example 114, 4-(4-{[2-(4-chlorophenyl)-4,4-dimethylcyclohex-1-en-1-yl]methyl}piperazin-1-yl)-N-({3-nitro-4-[(tetrahydrofuran-3-ylmethyl)amino]phenyl}sulfonyl)-2-(1H-pyrrolo[2,3-b]pyridin-5-yloxy)benzamide]	10.8
CN(C)CC(=O)N1CCO[C@@H](COc2ncc(S(=O)(=O)NC(=O)c3ccc(N4CCN(CC5=C(c6ccc(Cl)cc6)CC(C)(C)CC5)CC4)cc3Oc3cnc4[nH]ccc4c3)cc2Cl)C1 [Example 247, N-[(5-chloro-6-{[(2R)-4-(N,N-dimethylglycyl)morpholin-2-yl]methoxy}pyridin-3-yl)sulfonyl]-4-(4-{[2-(4-chlorophenyl)-4,4-dimethylcyclohex-1-en-1-yl]methyl}piperazin-1-yl)-2-(1H-pyrrolo[2,3-b]pyridin-5-yloxy)benzamide]	93
CC1(C)CCC(CN2CCN(c3ccc(C(=O)NS(=O)(=O)c4cnc(OC[C@H]5C[C@H]6C[C@@H]5C[C@@]6(C)O)c(Cl)c4)c(Oc4cnc5[nH]ccc5c4)c3)CC2)=C(c2ccc(Cl)cc2)C1 [Example 343, N-[(5-chloro-6-{[(1R,2S,4R,5R)-5-hydroxy-5-methylbicyclo[2.2.1]hept-2-yl]methoxy}pyridin-3-yl)sulfonyl]-4-(4-{[2-(4-chlorophenyl)-4,4-dimethylcyclohex-1-en-1-yl]methyl}piperazin-1-yl)-2-(1H-pyrrolo[2,3-b]pyridin-5-yloxy)benzamide]	127
CC1(C)CCC(c2ccc(Cl)cc2)=C(CN2CCN(c3ccc(C(=O)NS(=O)(=O)c4ccc(OCC5(F)CCOCC5)c([N+](=O)[O-])c4)c(Oc4cnc5[nH]ccc5c4)c3)CC2)C1 [Example 119, 4-(4-{[2-(4-chlorophenyl)-5,5-dimethylcyclohex-1-en-1-yl]methyl}piperazin-1-yl)-N-({4-[(4-fluorotetrahydro-2H-pyran-4-yl)methoxy]-3-nitrophenyl}sulfonyl)-2-(1H-pyrrolo[2,3-b]pyridin-5-yloxy)benzamide]	11.4
CC1(C)CC(c2ccc(Cl)cc2)=C(CN2CCN(c3ccc(C(=O)NS(=O)(=O)c4ccc(NCC5COCCO5)c([N+](=O)[O-])c4)c(Oc4cnc5[nH]ccc5c4)c3)CC2)CO1 (stereo not shown) [Example 31, 4-(4-{[4-(4-chlorophenyl)-6,6-dimethyl-5,6-dihydro-2H-pyran-3-yl]methyl}piperazin-1-yl)-N-({4-[(1,4-dioxan-2-ylmethyl)amino]-3-nitrophenyl}sulfonyl)-2-(1H-pyrrolo[2,3-b]pyridin-5-yloxy)benzamide]	15.7
CC1(C)CCC(CN2CCN(c3ccc(C(=O)NS(=O)(=O)c4ccc(NCCCN5CCCC5)c([N+](=O)[O-])c4)c(Oc4cccc5[nH]c6ccccc6c45)c3)CC2)=C(c2ccc(Cl)cc2)C1 [Example 8, 2-(9H-carbazol-4-yloxy)-4-(4-{[2-(4-chlorophenyl)-4,4-dimethylcyclohex-1-en-1-yl]methyl}piperazin-1-yl)-N-({3-nitro-4-[(3-pyrrolidin-1-ylpropyl)amino]phenyl}sulfonyl)benzamide]	158
CC1(C)CCC(CN2CCN(c3ccc(C(=O)NS(=O)(=O)c4cnc(OC[C@H]5CC[C@H](O)CC5)c(Cl)c4)c(Oc4cnc5[nH]ccc5c4)c3)CC2)=C(c2ccc(Cl)cc2)C1 [Example 298, N-({5-chloro-6-[(trans-4-hydroxycyclohexyl)methoxy]pyridin-3-yl}sulfonyl)-4-(4-{[2-(4-chlorophenyl)-4,4-dimethylcyclohex-1-en-1-yl]methyl}piperazin-1-yl)-2-(1H-pyrrolo[2,3-b]pyridin-5-yloxy)benzamide]	70.3
CC(C)N1CCC(Nc2ccc(S(=O)(=O)NC(=O)c3ccc(N4CCN(CC5=C(c6ccc(Cl)cc6)CC(C)(C)CC5)CC4)cc3Oc3cnc4[nH]ccc4c3)cc2[N+](=O)[O-])CC1 [Example 226, 4-(4-{[2-(4-chlorophenyl)-4,4-dimethylcyclohex-1-en-1-yl]methyl}piperazin-1-yl)-N-({4-[(1-isopropylpiperidin-4-yl)amino]-3-nitrophenyl}sulfonyl)-2-(1H-pyrrolo[2,3-b]pyridin-5-yloxy)benzamide]	118
CC1(C)CCC(CN2CCN(c3ccc(C(=O)NS(=O)(=O)c4cnc(OC[C@@H]5C[C@H]6C[C@@H]5C[C@@]6(C)O)c(Cl)c4)c(Oc4cnc5[nH]ccc5c4)c3)CC2)=C(c2ccc(Cl)cc2)C1 [Example 339, N-[(5-chloro-6-{[(1R,2R,4R,5R)-5-hydroxy-5-methylbicyclo[2.2.1]hept-2-yl]methoxy}pyridin-3-yl)sulfonyl]-4-(4-{[2-(4-chlorophenyl)-4,4-dimethylcyclohex-1-en-1-yl]methyl}piperazin-1-yl)-2-(1H-pyrrolo[2,3-b]pyridin-5-yloxy)benzamide]	450
CC1(C)CCC(CN2CCN(c3ccc(C(=O)NS(=O)(=O)c4cnc(OCC5CCC(F)(F)CC5)c(Cl)c4)c(Oc4cnc5[nH]ccc5c4)c3)CC2)=C(c2ccc(Cl)cc2)C1 [Example 287, N-({5-chloro-6-[(4,4-difluorocyclohexyl)methoxy]pyridin-3-yl}sulfonyl)-4-(4-{[2-(4-chlorophenyl)-4,4-dimethylcyclohex-1-en-1-yl]methyl}piperazin-1-yl)-2-(1H-pyrrolo[2,3-b]pyridin-5-yloxy)benzamide]	593
CC1(C)CCC(CN2CCN(c3ccc(C(=O)NS(=O)(=O)c4cnc(O[C@@H]5CCN(CC(F)F)C5)c(Cl)c4)c(Oc4cnc5[nH]ccc5c4)c3)CC2)=C(c2ccc(Cl)cc2)C1 [Example 261, N-[(5-chloro-6-{[(3R)-1-(2,2-difluoroethyl)pyrrolidin-3-yl]oxy}pyridin-3-yl)sulfonyl]-4-(4-{[2-(4-chlorophenyl)-4,4-dimethylcyclohex-1-en-1-yl]methyl}piperazin-1-yl)-2-(1H-pyrrolo[2,3-b]pyridin-5-yloxy)benzamide]	184
CO[C@H]1CC[C@@H](CNc2ccc(S(=O)(=O)NC(=O)c3ccc(N4CCN(CC5=C(c6ccc(Cl)cc6)CC(C)(C)OC5)CC4)cc3Oc3cnc4[nH]ccc4c3)cc2[N+](=O)[O-])CC1 [Example 72, Cis-4-(4-{[4-(4-chlorophenyl)-6,6-dimethyl-5,6-dihydro-2H-pyran-3-yl]methyl}piperazin-1-yl)-N-[(4-{[(4-methoxycyclohexyl)methyl]amino}-3-nitrophenyl)sulfonyl]-2-(1H-pyrrolo[2,3-b]pyridin-5-yloxy)benzamide]	7.51
CC1(C)CCC(CN2CCN(c3ccc(C(=O)NS(=O)(=O)c4ccc(NCC5CCOCC5)c(S(=O)(=O)C(F)(F)F)c4)c(Oc4ccc5[nH]ccc5c4)c3)CC2)=C(c2ccc(Cl)cc2)C1 [Example 94, 4-(4-{[2-(4-chlorophenyl)-4,4-dimethylcyclohex-1-en-1-yl]methyl}piperazin-1-yl)-2-(1H-indol-5-yloxy)-N-({4-[(tetrahydro-2H-pyran-4-ylmethyl)amino]-3-[(trifluoromethyl)sulfonyl]phenyl}sulfonyl)benzamide]	1690
CC1(C)CCC(CN2CCN(c3ccc(C(=O)NS(=O)(=O)c4ccc(NC[C@H]5CC[C@H](O)C5)c([N+](=O)[O-])c4)c(Oc4cnc5[nH]ccc5c4)c3)CC2)=C(c2ccc(Cl)cc2)C1 [Example 157, 4-(4-{[2-(4-chlorophenyl)-4,4-dimethylcyclohex-1-en-1-yl]methyl}piperazin-1-yl)-N-{[4-({[(1S,3S)-3-hydroxycyclopentyl]methyl}amino)-3-nitrophenyl]sulfonyl}-2-(1H-pyrrolo[2,3-b]pyridin-5-yloxy)benzamide]	10.9
O=C(NS(=O)(=O)c1ccc(NCC2CCOCC2)c([N+](=O)[O-])c1)c1ccc(N2CCC(F)(Cc3ccccc3-c3ccc(Cl)cc3)CC2)cc1Oc1cnc2[nH]ccc2c1 [Example 271, 4-{4-[(4′-chlorobiphenyl-2-yl)methyl]-4-fluoropiperidin-1-yl}-N-({3-nitro-4-[(tetrahydro-2H-pyran-4-ylmethyl)amino]phenyl}sulfonyl)-2-(1H-pyrrolo[2,3-b]pyridin-5-yloxy)benzamide]	437

same assay, conditions: Homo sapiens, RS4-11, Table 5, direct comparison Z=N with corresponding analogs Z=C; read-out: RS4; 11 EC50

Compound	EC50 [nM]
CC1(C)CCC(CN2CCN(c3ccc(C(=O)NS(=O)(=O)c4ccc(NCC5CCOCC5)c(S(=O)(=O)C(F)(F)F)c4)c(Oc4ccc5[nH]ccc5c4)c3)CC2)=C(c2ccc(Cl)cc2)C1 [Example 94, 4-(4-{[2-(4-chlorophenyl)-4,4-dimethylcyclohex-1-en-1-yl]methyl}piperazin-1-yl)-2-(1H-indol-5-yloxy)-N-({4-[(tetrahydro-2H-pyran-4-ylmethyl)amino]-3-[(trifluoromethyl)sulfonyl]phenyl}sulfonyl)benzamide]	1690
